Assay results from the supplement of paper PMC10307832.

compound: COc1cc2nc(N3CCCN(C)CC3)nc(NC3CCN(Cc4ccccc4)CC3)c2cc1OC + CC(C)C[C@H](NC(=O)[C@H](Cc1ccccc1)NC(=O)c1cnccn1)B(O)O [Bortezomib] (partner 0.002 µM); assay: relative viability (nuclei count vs DMSO), 5 days (fraction); higher = more cells survive; conditions: first compound 0.2 µM
Summary of the method: (§1)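 Cells from lung cancer lines were seeded into 1536-well plates and, one day later, dosed by pin tool. Treatments were either a single drug or a fixed dose of an anchor drug with five library-drug doses (not always all listed) in √10 steps. After 5 days, nuclei were stained in a one-step fixation (final 0.05% Triton X-100, 1% formaldehyde, 1 ug/ml Hoechst) and counted on 4× images, and relative viability is the treated-to-vehicle nuclei ratio, as the median of duplicate plates.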

Row | Cell Line | relative viability
1 | NCI-H661 | 0.813
2 | NCI-H1734 | 0.919
3 | NCI-H460 | 1.04
4 | NCI-H2347 | 1.04
5 | SK-LU-1 | 1.14
6 | 201T | 1.13
7 | NCI-H1915 | 0.97
8 | HCC-827 | 0.99
9 | LXF-289 | 0.98
10 | NCI-H23 | 1
11 | NCI-H647 | 0.967
12 | NCI-H1651 | 0.884
13 | EPLC-272H | 0.897
14 | NCI-H1792 | 0.952
15 | NCI-H1355 | 1.23
16 | NCI-H3122 | 0.97
17 | NCI-H1437 | 0.614
18 | NCI-H1755 | 1
19 | NCI-H2023 | 1.02
20 | HCC-15 | 1.03
21 | PC-14 | 0.984
22 | EKVX | 1.09
23 | LC-2-ad | 1.03
24 | NCI-H1975 | 0.371
25 | RERF-LC-KJ | 1.12
26 | NCI-H650 | 0.752
27 | PC-3 [JPC-3] | 0.793

same assay, conditions: first compound 0.6325 µM

Row | Cell Line | relative viability
28 | HCC-78 | 0.434
29 | NCI-H322M | 1.28
30 | LCLC-97TM1 | 0.939
31 | NCI-H2009 | 0.833
32 | A-427 | 0.869
33 | NCI-H661 | 0.793
34 | NCI-H1734 | 0.792
35 | NCI-H460 | 1.05
36 | NCI-H2347 | 0.846
37 | SK-LU-1 | 1.19
38 | 201T | 1.14
39 | NCI-H1915 | 0.973
40 | HCC-827 | 1.13
41 | LXF-289 | 0.973
42 | NCI-H23 | 0.943
43 | NCI-H647 | 1

Row | Cell Line | relative viability
44 | NCI-H1651 | 0.939
45 | EPLC-272H | 0.793
46 | NCI-H1792 | 1.01
47 | NCI-H1355 | 1.21
48 | NCI-H3122 | 0.966
49 | NCI-H1437 | 0.683
50 | NCI-H1755 | 0.965
51 | NCI-H2023 | 0.967
52 | HCC-15 | 1.02
53 | PC-14 | 0.72
54 | EKVX | 0.993
55 | LC-2-ad | 1.01
56 | NCI-H1975 | 0.376
57 | RERF-LC-KJ | 1.08
58 | NCI-H650 | 0.739
59 | PC-3 [JPC-3] | 0.787

same assay, conditions: first compound 2 µM

Row | Cell Line | relative viability
60 | HCC-78 | 0.535
61 | NCI-H322M | 1.12
62 | LCLC-97TM1 | 0.697
63 | NCI-H2009 | 1.08
64 | A-427 | 1.09
65 | NCI-H441 | 0.519
66 | NCI-H661 | 0.935
67 | NCI-H1734 | 1.05
68 | NCI-H460 | 1.14
69 | NCI-H2347 | 1.08
70 | SK-LU-1 | 1.5
71 | 201T | 1.17
72 | NCI-H1915 | 1.02
73 | HCC-827 | 0.786
74 | LXF-289 | 1.03
75 | NCI-H23 | 1.2
76 | NCI-H647 | 1.35

Row | Cell Line | relative viability
77 | NCI-H1651 | 1.03
78 | EPLC-272H | 0.918
79 | NCI-H1792 | 1.08
80 | NCI-H1355 | 1.29
81 | NCI-H3122 | 1.07
82 | NCI-H1437 | 0.65
83 | NCI-H1755 | 0.922
84 | NCI-H2023 | 1.05
85 | HCC-15 | 1.12
86 | PC-14 | 0.981
87 | EKVX | 1.18
88 | LC-2-ad | 1.16
89 | NCI-H1975 | 0.346
90 | RERF-LC-KJ | 1.14
91 | NCI-H650 | 1.05
92 | PC-3 [JPC-3] | 0.962

same assay, conditions: first compound 6.325 µM

Row | Cell Line | relative viability
93 | HCC-78 | 0.504
94 | NCI-H322M | 1.2
95 | LCLC-97TM1 | 0.517
96 | NCI-H2009 | 0.965
97 | A-427 | 0.957
98 | NCI-H441 | 0.36
99 | NCI-H661 | 0.868
100 | NCI-H1734 | 0.662
101 | NCI-H460 | 0.864
102 | NCI-H2347 | 1.07
103 | SK-LU-1 | 1.07
104 | 201T | 1.07
105 | NCI-H1915 | 0.957
106 | HCC-827 | 1.06
107 | LXF-289 | 0.985
108 | NCI-H23 | 0.918
109 | NCI-H647 | 0.449

Row | Cell Line | relative viability
110 | NCI-H1651 | 0.934
111 | EPLC-272H | 0.658
112 | NCI-H1792 | 1.22
113 | NCI-H1355 | 1.1
114 | NCI-H3122 | 0.989
115 | NCI-H1437 | 0.459
116 | NCI-H1755 | 0.88
117 | NCI-H2023 | 0.329
118 | HCC-15 | 0.881
119 | PC-14 | 0.461
120 | EKVX | 0.963
121 | LC-2-ad | 1.04
122 | NCI-H1975 | 0.413
123 | RERF-LC-KJ | 1.02
124 | NCI-H650 | 0.694
125 | PC-3 [JPC-3] | 0.675

compound: COc1cc2nc(N3CCCN(C)CC3)nc(NC3CCN(Cc4ccccc4)CC3)c2cc1OC + Nc1ncn([C@H]2C[C@H](O)[C@@H](CO)O2)c(=O)n1 [Decitabine] (partner 2 µM); assay: as above; conditions: first compound 0.2 µM
Summary of the method: as §1

Row | Cell Line | relative viability
126 | HCC-78 | 0.642
127 | NCI-H322M | 0.717
128 | LCLC-97TM1 | 0.244
129 | NCI-H2009 | 0.396
130 | A-427 | 0.602
131 | NCI-H441 | 0.239
132 | NCI-H661 | 0.58
133 | NCI-H1734 | 0.504
134 | NCI-H460 | 0.484
135 | NCI-H2347 | 0.586
136 | SK-LU-1 | 0.644
137 | 201T | 0.889
138 | NCI-H1915 | 0.263
